Legend:
human factor XIa = human factor XIa (Homo sapiens, UniProt P03951); assay: Factor XIa Assay; assay type: biochemical; conditions: human factor XIa 0.04 nM, substrate GPR-AFC, 30 min pre-incubation at 25° C., pH 7.4; read-out: FXIa IC50
Human plasma kallikrein = target: T1, Human plasma kallikrein (Homo sapiens, UniProt P03952); assay: Plasma Kallikrein Assay; assay type: biochemical; conditions: purified Human plasma kallikrein 0.5 nM, substrate Acetyl-K-P-R-AFC, pH 7.4
T1 construct: yields a heavy chain (371 amino acids) and a light chain (248 amino acids); purchased Enzyme Research Laboratories
T1 sequence (P03952 391-638 limits assumed): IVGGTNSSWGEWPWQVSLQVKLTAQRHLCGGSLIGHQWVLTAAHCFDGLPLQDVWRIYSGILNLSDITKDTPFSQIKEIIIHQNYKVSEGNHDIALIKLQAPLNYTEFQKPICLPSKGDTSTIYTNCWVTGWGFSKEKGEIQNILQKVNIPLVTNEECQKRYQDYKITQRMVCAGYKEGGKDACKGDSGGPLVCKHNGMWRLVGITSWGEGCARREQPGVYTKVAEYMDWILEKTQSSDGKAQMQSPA
T1 sequence (P03952 20-390 partner limits assumed): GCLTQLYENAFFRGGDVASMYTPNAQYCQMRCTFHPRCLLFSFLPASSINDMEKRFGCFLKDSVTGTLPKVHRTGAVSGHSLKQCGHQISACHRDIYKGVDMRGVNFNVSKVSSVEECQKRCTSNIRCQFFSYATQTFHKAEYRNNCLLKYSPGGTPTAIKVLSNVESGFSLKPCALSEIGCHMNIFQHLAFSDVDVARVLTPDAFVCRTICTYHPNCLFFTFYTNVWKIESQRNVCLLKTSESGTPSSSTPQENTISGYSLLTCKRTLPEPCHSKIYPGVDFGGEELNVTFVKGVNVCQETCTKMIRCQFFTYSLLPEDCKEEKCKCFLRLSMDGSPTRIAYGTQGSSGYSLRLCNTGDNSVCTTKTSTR

Sequence of human factor XIa (P03951 388-625 limits assumed): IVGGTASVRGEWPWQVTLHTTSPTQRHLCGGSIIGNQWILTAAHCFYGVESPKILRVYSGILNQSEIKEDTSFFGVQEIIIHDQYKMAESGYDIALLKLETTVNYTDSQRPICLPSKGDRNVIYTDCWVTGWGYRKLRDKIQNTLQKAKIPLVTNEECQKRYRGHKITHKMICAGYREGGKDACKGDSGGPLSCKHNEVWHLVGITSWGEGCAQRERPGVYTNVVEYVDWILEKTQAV
Sequence of human factor XIa (P03951 19-387 partner limits assumed): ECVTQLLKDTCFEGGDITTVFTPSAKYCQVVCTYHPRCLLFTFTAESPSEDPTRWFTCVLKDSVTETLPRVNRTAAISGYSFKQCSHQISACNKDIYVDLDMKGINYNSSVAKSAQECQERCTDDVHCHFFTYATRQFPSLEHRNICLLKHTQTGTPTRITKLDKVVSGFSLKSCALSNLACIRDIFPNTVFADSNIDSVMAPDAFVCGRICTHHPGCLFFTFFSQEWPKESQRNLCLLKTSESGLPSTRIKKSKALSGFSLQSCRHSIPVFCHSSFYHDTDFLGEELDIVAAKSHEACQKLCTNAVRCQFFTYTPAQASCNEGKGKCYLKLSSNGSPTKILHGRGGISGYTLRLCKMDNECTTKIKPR

Question: Which IC50 (human factor XIa) does the source give for C[C@@H](c1cnc(N2CC(F)C2)nc1)n1cc(NC(=O)c2cncc(-c3c(C(F)F)ccc(Cl)c3F)n2)cn1 [Example 92, (S)-6-(3-Chloro-6-(difluoromethyl)-2-fluorophenyl)-N-(1-(1-(2-(3-fluoroazetidin-1-yl)pyrimidin-5-yl)ethyl)-1H-pyrazol-4-yl)pyrazine-2-carboxamide] here?
Answer: 5020 nM

Question: What about the IC50 (Human plasma kallikrein) of the same compound?
Answer: 18.5 nM

Question: What does the source list for CC(c1cnc(N2Cc3cnn(C)c3C2)nc1)n1cc(NC(=O)c2cncc(-c3c(C(F)F)ccc(Cl)c3F)n2)cn1 (centres unmarked) [Example 94, 6-(3-Chloro-6-(difluoromethyl)-2-fluorophenyl)-N-(1-(1-(2-(1-methyl-4,6-dihydropyrrolo[3,4-c]pyrazol-5(1H)-yl)pyrimidin-5-yl)ethyl)-1H-pyrazol-4-yl)pyrazine-2-carboxamide]?
Answer: IC50 (human factor XIa): 8230 nM; IC50 (Human plasma kallikrein): 20 nM

Question: How did the IC50 (human factor XIa) turn out when NC(=O)[C@H]1CCCN1c1ncc(Cn2cc(NC(=O)c3cncc(-c4c(C(F)F)ccc(Cl)c4F)n3)cn2)cn1 [Example 97, (R)-N-(1-((2-(2-Carbamoylpyrrolidin-1-yl)pyrimidin-5-yl)methyl)-1H-pyrazol-4-yl)-6-(3-chloro-6-(difluoromethyl)-2-fluorophenyl)pyrazine-2-carboxamide] was run?
Answer: 8930 nM

Question: And the IC50 (Human plasma kallikrein)?
Answer: 26.9 nM

Question: With CC(c1cnc(N2CC3(CC3)C2)nc1)n1cc(NC(=O)c2cncc(-c3c(C(F)F)ccc(Cl)c3F)n2)cn1 (centres unmarked) [Example 99, N-(1-(1-(2-(5-Azaspiro[2.3]hexan-5-yl)pyrimidin-5-yl)ethyl)-1H-pyrazol-4-yl)-6-(3-chloro-6-(difluoromethyl)-2-fluorophenyl)pyrazine-2-carboxamide] as the compound, how does the IC50 (human factor XIa) read?
Answer: 3660 nM

Question: And the IC50 (Human plasma kallikrein)?
Answer: 29.8 nM

Question: Which results are given for C[C@@H](c1cnc(N2CC(C)(F)C2)nc1)n1cc(NC(=O)c2cncc(-c3c(C(F)F)ccc(Cl)c3F)n2)cn1 [Example 101, (S)-6-(3-Chloro-6-(difluoromethyl)-2-fluorophenyl)-N-(1-(1-(2-(3-fluoro-3-methylazetidin-1-yl)pyrimidin-5-yl)ethyl)-1H-pyrazol-4-yl)pyrazine-2-carboxamide]?
Answer: IC50 (human factor XIa): 7640 nM; IC50 (Human plasma kallikrein): 31.2 nM

Question: Which IC50 (human factor XIa) does the source give for O=C(Nc1cnn(Cc2cnc(N3CC[C@@H]3CO)nc2)c1)c1cncc(-c2c(C(F)F)ccc(Cl)c2F)n1 [Example 111, (R)-6-(3-Chloro-6-(difluoromethyl)-2-fluorophenyl)-N-(1-((2-(2-(hydroxymethyl)azetidin-1-yl)pyrimidin-5-yl)methyl)-1H-pyrazol-4-yl)pyrazine-2-carboxamide] here?
Answer: 3000 nM

Question: And the IC50 (Human plasma kallikrein)?
Answer: 46.5 nM

Question: What does the source list for O=C(Nc1cnn(Cc2ccc(N3CCC(O)C3)nc2)c1)c1cncc(-c2c(C(F)F)ccc(Cl)c2F)n1 (centres unmarked) [Example 123, 6-(3-Chloro-6-(difluoromethyl)-2-fluorophenyl)-N-(1-((6-(3-hydroxypyrrolidin-1-yl)pyridin-3-yl)methyl)-1H-pyrazol-4-yl)pyrazine-2-carboxamide]?
Answer: IC50 (human factor XIa): 3330 nM; IC50 (Human plasma kallikrein): 27.3 nM

Question: Which results are given for O=C(Nc1cnn(Cc2cnc(N3CCC3)nc2)c1)c1nc(-c2c(C(F)F)ccc(Cl)c2F)cnc1C(F)F [Example 136, N-(1-((2-(Azetidin-1-yl)pyrimidin-5-yl)methyl)-1H-pyrazol-4-yl)-6-(3-chloro-6-(difluoromethyl)-2-fluorophenyl)-3-(difluoromethyl)pyrazine-2-carboxamide]?
Answer: IC50 (human factor XIa): 838 nM; IC50 (Human plasma kallikrein): 8.6 nM

Question: Which IC50 (human factor XIa) does the source give for O=C(O)c1ncc(-c2c(C(F)F)ccc(Cl)c2F)nc1C(=O)Nc1cnn(Cc2cnc(N3CCC3)nc2)c1 [Example 137, 3-((1-((2-(Azetidin-1-yl)pyrimidin-5-yl)methyl)-1H-pyrazol-4-yl)carbamoyl)-5-(3-chloro-6-(difluoromethyl)-2-fluorophenyl)pyrazine-2-carboxylic acid] here?
Answer: 4100 nM

Question: What about the IC50 (Human plasma kallikrein) of the same compound?
Answer: 21.2 nM

Question: Which results are given for NC(=O)c1ncc(-c2c(C(F)F)ccc(Cl)c2F)nc1C(=O)Nc1cnn(Cc2cnc(N3CCC3)nc2)c1 [Example 138, N^2-(1-((2-(Azetidin-1-yl)pyrimidin-5-yl)methyl)-1H-pyrazol-4-yl)-6-(3-chloro-6-(difluoromethyl)-2-fluorophenyl)pyrazine-2,3-dicarboxamide]?
Answer: IC50 (human factor XIa): 2320 nM; IC50 (Human plasma kallikrein): 14.6 nM

Question: Which IC50 (human factor XIa) does the source give for CC(C)(O)CNC[C@@H]1[C@@H]2C[C@@H]2CN1c1ncc(Cn2cc(NC(=O)c3cncc(-c4c(C(F)F)ccc(Cl)c4F)n3)cn2)cn1 [Example 139, 6-(3-Chloro-6-(difluoromethyl)-2-fluorophenyl)-N-(1-((2-((1R,2S,5S)-2-(((2-hydroxy-2-methylpropyl)amino)methyl)-3-azabicyclo[3.1.0]hexan-3-yl)pyrimidin-5-yl)methyl)-1H-pyrazol-4-yl)pyrazine-2-carboxamide] here?
Answer: 502 nM

Question: What about the IC50 (Human plasma kallikrein) of the same compound?
Answer: 0.3 nM

Question: Which results are given for O=C(Nc1cnn(Cc2cnc(N3CCC[C@H]3CN3CC[C@@H](O)C3)nc2)c1)c1cncc(-c2c(C(F)F)ccc(Cl)c2F)n1 [Example 142, 6-(3-Chloro-6-(difluoromethyl)-2-fluorophenyl)-N-(1-((2-((S)-2-(((R)-3-hydroxypyrrolidin-1-yl)methyl)pyrrolidin-1-yl)pyrimidin-5-yl)methyl)-1H-pyrazol-4-yl)pyrazine-2-carboxamide]?
Answer: IC50 (human factor XIa): 2170 nM; IC50 (Human plasma kallikrein): 0.4 nM

Question: What does the source list for C[C@H](CO)NC[C@@H]1[C@@H]2C[C@@H]2CN1c1ncc(Cn2cc(NC(=O)c3cncc(-c4c(C(F)F)ccc(Cl)c4F)n3)cn2)cn1 [Example 143, 6-(3-Chloro-6-(difluoromethyl)-2-fluorophenyl)-N-(1-((2-((1R,2S,5S)-2-((((R)-1-hydroxypropan-2-yl)amino)methyl)-3-azabicyclo[3.1.0]hexan-3-yl)pyrimidin-5-yl)methyl)-1H-pyrazol-4-yl)pyrazine-2-carboxamide]?
Answer: IC50 (human factor XIa): 528 nM; IC50 (Human plasma kallikrein): 0.4 nM

Question: What does the source list for CC1(O)CCN(C[C@@H]2CCCN2c2ncc(Cn3cc(NC(=O)c4cncc(-c5c(C(F)F)ccc(Cl)c5F)n4)cn3)cn2)C1 (stereo partly drawn) [Example 144, 6-(3-Chloro-6-(difluoromethyl)-2-fluorophenyl)-N-(1-((2-((2S)-2-((3-hydroxy-3-methylpyrrolidin-1-yl)methyl)pyrrolidin-1-yl)pyrimidin-5-yl)methyl)-1H-pyrazol-4-yl)pyrazine-2-carboxamide]?
Answer: IC50 (human factor XIa): 2340 nM; IC50 (Human plasma kallikrein): 0.4 nM

Question: For CC1(O)CN(C[C@@H]2[C@@H]3C[C@@H]3CN2c2ncc(Cn3cc(NC(=O)c4cncc(-c5c(C(F)F)ccc(Cl)c5F)n4)cn3)cn2)C1 [Example 145, 6-(3-Chloro-6-(difluoromethyl)-2-fluorophenyl)-N-(1-((2-((1R,2S,5S)-2-((3-hydroxy-3-methylazetidin-1-yl)methyl)-3-azabicyclo[3.1.0]hexan-3-yl)pyrimidin-5-yl)methyl)-1H-pyrazol-4-yl)pyrazine-2-carboxamide], which IC50 (human factor XIa) is on record?
Answer: 366 nM

Question: What about the IC50 (Human plasma kallikrein) of the same compound?
Answer: 0.5 nM

Question: C[C@H]1[C@@H](O)CCN1C[C@@H]1CCCN1c1ncc(Cn2cc(NC(=O)c3cncc(-c4c(C(F)F)ccc(Cl)c4F)n3)cn2)cn1 [Example 146, 6-(3-Chloro-6-(difluoromethyl)-2-fluorophenyl)-N-(1-((2-((S)-2-(((2S,3S)-3-hydroxy-2-methylpyrrolidin-1-yl)methyl)pyrrolidin-1-yl)pyrimidin-5-yl)methyl)-1H-pyrazol-4-yl)pyrazine-2-carboxamide] was tested. Which IC50 (human factor XIa) did it give?
Answer: 7220 nM

Question: What about the IC50 (Human plasma kallikrein) of the same compound?
Answer: 0.6 nM

Question: Which IC50 (human factor XIa) does the source give for C[C@H](F)CN(C)CC1CCCN1c1ncc(Cn2cc(NC(=O)c3cncc(-c4c(C(F)F)ccc(Cl)c4F)n3)cn2)cn1 (stereo partly drawn) [Example 147, 6-(3-Chloro-6-(difluoromethyl)-2-fluorophenyl)-N-(1-((2-(2-((((S)-2-fluoropropyl)(methyl)amino)methyl)pyrrolidin-1-yl)pyrimidin-5-yl)methyl)-1H-pyrazol-4-yl)pyrazine-2-carboxamide] here?
Answer: 5500 nM

Question: What about the IC50 (Human plasma kallikrein) of the same compound?
Answer: 0.6 nM

Question: How did the IC50 (human factor XIa) turn out when O=C(Nc1cnn(Cc2cnc(N3CCCC3CN3CC[C@H](F)C3)nc2)c1)c1cncc(-c2c(C(F)F)ccc(Cl)c2F)n1 (stereo partly drawn) [Example 148, 6-(3-Chloro-6-(difluoromethyl)-2-fluorophenyl)-N-(1-((2-(2-(((S)-3-fluoropyrrolidin-1-yl)methyl)pyrrolidin-1-yl)pyrimidin-5-yl)methyl)-1H-pyrazol-4-yl)pyrazine-2-carboxamide] was run?
Answer: 2930 nM

Question: What about the IC50 (Human plasma kallikrein) of the same compound?
Answer: 0.6 nM

Question: What does the source list for O=C(Nc1cnn(Cc2cnc(N3C[C@H]4C[C@H]4[C@H]3CNCC(O)C(F)F)nc2)c1)c1cncc(-c2c(C(F)F)ccc(Cl)c2F)n1 (stereo partly drawn) [Example 150, 6-(3-Chloro-6-(difluoromethyl)-2-fluorophenyl)-N-(1-((2-((1R,2S,5S)-2-(((3,3-difluoro-2-hydroxypropyl)amino)methyl)-3-azabicyclo[3.1.0]hexan-3-yl)pyrimidin-5-yl)methyl)-1H-pyrazol-4-yl)pyrazine-2-carboxamide]?
Answer: IC50 (human factor XIa): 650 nM; IC50 (Human plasma kallikrein): 0.6 nM

Question: How did the IC50 (human factor XIa) turn out when C[C@@H](F)CN(C)CC1CCCN1c1ncc(Cn2cc(NC(=O)c3cncc(-c4c(C(F)F)ccc(Cl)c4F)n3)cn2)cn1 (stereo partly drawn) [Example 151, 6-(3-Chloro-6-(difluoromethyl)-2-fluorophenyl)-N-(1-((2-(2-((((R)-2-fluoropropyl)(methyl)amino)methyl)pyrrolidin-1-yl)pyrimidin-5-yl)methyl)-1H-pyrazol-4-yl)pyrazine-2-carboxamide] was run?
Answer: 7720 nM

Question: What about the IC50 (Human plasma kallikrein) of the same compound?
Answer: 1 nM

Question: Which IC50 (human factor XIa) does the source give for CC1(O)CN(C[C@@H]2CCCN2c2ncc(Cn3cc(NC(=O)c4cncc(-c5c(C(F)F)ccc(Cl)c5F)n4)cn3)cn2)C1 [Example 152, (S)-6-(3-Chloro-6-(difluoromethyl)-2-fluorophenyl)-N-(1-((2-(2-((3-hydroxy-3-methylazetidin-1-yl)methyl)pyrrolidin-1-yl)pyrimidin-5-yl)methyl)-1H-pyrazol-4-yl)pyrazine-2-carboxamide] here?
Answer: 6020 nM

Question: And the IC50 (Human plasma kallikrein)?
Answer: 1 nM

Question: C[C@@H](O)CNCC1CCCN1c1ncc(Cn2cc(NC(=O)c3cncc(-c4c(C(F)F)ccc(Cl)c4F)n3)cn2)cn1 (stereo partly drawn) [Example 154, 6-(3-Chloro-6-(difluoromethyl)-2-fluorophenyl)-N-(1-((2-(2-((((R)-2-hydroxypropyl)amino)methyl)pyrrolidin-1-yl)pyrimidin-5-yl)methyl)-1H-pyrazol-4-yl)pyrazine-2-carboxamide] was tested. Which IC50 (human factor XIa) did it give?
Answer: 4130 nM

Question: What about the IC50 (Human plasma kallikrein) of the same compound?
Answer: 1.2 nM

Reference: patent US20230416227A1, “PLASMA KALLIKREIN INHIBITORS” (Merck Sharp & Dohme LLC, priority 2020, published 2023)
